Reference: US10654852B2, “Antibiotics and methods of using same” (THE BROAD INSTITUTE, INC., priority 2016, dated 2020)
Converted amounts (≈) assume the structure as drawn. Read-outs that look alike come from different tables or passages of the source.

How the values were obtained:
[1] = tested on: Escherichia coli ATCC-25922; assay: MIC in the presence of normal human serum (50% NHS); assay type: cell-based; details: ATCC25922
Text: As used herein, the term “MIC” refers to minimum inhibitory concentrations. Minimum inhibitory concentrations may be determined by broth microdilution according to the Clinical and Laboratory Standards Institute guidelines (see, e.g., […]-A8. Methods for dilution antimicrobial susceptibility tests for bacteria that grow aerobically: approved standard, 8th Ed.; […] One example for measuring minimum inhibitory concentrations may be found in Reck et al., 2012, J. Med. Chem. 55:6916-6933, the disclosure of which is incorporated by reference. Inoculants may be incubated on blood agar plates for 18 to 24 hours. Incubation may occur at a temperature from about 35° C. to about 37° C. […] In serum supplemented experiments, the testing medium (e.g., DMSO solution) and human serum may be mixed. The ratio of testing medium to human serum may be 1:1 (vol:vol). Plates may be read by spectrophotometry at 620 nm. Unless indicated otherwise, all inhibitory concentrations recited in the specification relate to MICs. The MIC tests were based on broth microdilution method in CLSI-M7. […] Solutions of varying concentrations of DMSO were prepared in wells of a v-bottom 96-well plate (Axygen-WIPP02280). A multi-pipette was used to perform serial dilutions as necessary. From well to well, the drug concentrations were 6.4, 3.2, 1.6, 0.8, 0.4, 0.2, 0.1, 0.05, 0.025, 0.0125, 0.00625 and 0 mg/ml in DMSO. For extremely potent antibiotic, the starting concentrations were adjusted accordingly. This was the drug mother plate. Daughter plates were prepared by placing 98 μl of a testing medium into each well of a u-bottom 96-well plate (Costar 3788). An aliquot of each 2 μl solution from each well of the mother plate was then transferred into the corresponding wells of the daughter plate using a multi-pipette work station (CyBi®-SELMA). Testing media were selected based on CLSI-M7, M11 and […]. Cation adjusted Mueller Hinton Broth (CA-MHB-212322) was the testing medium for majority of bacterial species. Brucella medium (BD-211088) supplemented with 5% LHB, 0.5% hemin and 0.1% vitamin K1 (Sigma-95271) was the testing medium for anaerobic bacteria. One day prior to the day of MIC test, bacterial strains were streaked out from -80° C. glycerol stock onto Trypticase Soy Agar (TSA) plates (Brucella blood agar for anaerobic bacteria) and incubated at 37° C. for 20 hours (in anaerobic condition for anaerobic bacteria, e.g., 80% N2, 10% H2 and 10% CO2). Single colonies of bacteria were picked by using an inoculation loop (Greiner-731175) and suspended into 5 ml sterile saline. The turbidity of the suspension was adjusted to 0.10 (Siemens MicroS can turbidity meter), which implies a concentration of colony forming units (“CFU”) of approximately 1.0×10^8 CFU/ml. The bacterial suspension was diluted 100× in testing media. For MIC experiments with NHS, testing medium and human serum (Equitech Bio Inc. BRH-949908) were mixed in the ratio of 1:1. This was used for inoculation of the daughter plates. An aliquot of 100 μl of the bacterial suspension was inoculated into each well of the daughter plates using a multi-pipette. […] The plates were incubated in ambient atmosphere and at 37° C. in an incubator for 20 hours (for anaerobic bacteria in an anaerobic condition as described above for 48 hours). The MIC values were determined and based on the standards of CLSI methods M7-A7, broth microdilution method. […] Test compounds were compared to control antibiotics Penicillin G (Sigma-13752) and levofloxacin (Sigma-28266). […] Additionally, the MIC's of another gyrase inhibitor (“GSK”) with a structure different from the inventive compounds and the antibacterial levofloxin was measured. MIC are given in μg/mL.

[2] = tested on: Staphylococcus aureus NRS-384; assay: MIC (50% NHS); assay type: cell-based; details: NRS384; Staphylococcus aureus NRS-384, 50% NHS
[3] = tested on: Enterococcus faecalis ATCC-29212; assay: MIC (50% NHS); assay type: cell-based; details: ATCC29212; Enterococcus faecalis ATCC-29212, 50% NHS
[4] = Microsomal stability assay, mouse CLint; assay type: in vitro ADME; parameters: unit not given here; details: mouse liver microsomes, 1 μM, 0.5 mg/ml microsomal protein
Protocol: (§1) The activity profiles of compounds 17, 23, and 24 were assessed by various in vitro measurements. The minimum inhibitory concentration (MIC), MIC in the presence of normal human serum (NHS), microsome CLint, the % of free compounds following a plasma protein biding (PPB) assay, and the concentration of drug where the human-ether-à-go-go-related gene (hERG gene) channel block is halved (IC50(hERG)) were measured using standard in vitro protocols for compounds 17, 23, and 24. Unless otherwise indicated, measurements (e.g., microsomal clearance) were performed using a standard microsomal stability assay using LC/MS/MS techniques.
(§2) Test compounds were incubated at 37° C. with liver microsomes pooled from multiple donors at 1 μM in the presence of a NADPH regenerating system at 0.5 mg/ml microsomal protein. Positive of testosterone (a 3A4 substrate), propafenone (a 2D6 substrate), and diclofenac (a 2c9 substrate) were similarly incubated with microsomes in the presence of a NADPH regenerating system. Samples are removed at 0, 5, 10, 20, 30, and 60 minutes of incubation and immediately mixed with cold acetonitrile containing an internal standard (IS). Samples are then analyzed by LC/MS/MS to determine the disappearance of the test compound and are assessed based on the peak area ratios of analyte/IS (no standard curve).

[5] = Microsomal stability assay, human CLint; assay type: in vitro ADME; parameters: unit not given here; details: human liver microsomes, 1 μM, 0.5 mg/ml microsomal protein
Protocol: as §1, §2

[6] = Plasma protein binding (PPB) assay; assay type: in vitro ADME; details: % of free compound
Protocol: as §1

[7] = tested on: Citrobacter werkmanii Brenner ATCC-51114; assay: MIC (50% NHS); assay type: cell-based; details: ATCC51114; Citrobacter werkmanii Brenner ATCC-51114, 50% NHS
[8] = tested on: Staphylococcus aureus NRS-100; assay: MIC (50% NHS); assay type: cell-based; details: NRS100; Staphylococcus aureus NRS-100, 50% NHS
[9] = Escherichia coli ATC-25922, 50% normal human serum, Table 5, read-out: MIC (50% NHS)
[10] = Escherichia coli ATCC-25922, 50% NHS, Table 6, read-out: MIC

| SMILES | MIC [1, 9] [µg/mL] | MIC [1, 10] [µg/mL] | MIC [2] [µg/mL] | MIC [3] [µg/mL] | mouse CLint [4] | human CLint [5] | fraction unbound [6] | MIC [7] [µg/mL] | MIC [8] [µg/mL] |
| --- | --- | --- | --- | --- | --- | --- | --- | --- | --- |
| CN1CC2CN(C(=O)Nc3cc(F)cc(F)c3)CC(C1)C2(O)c1ccc(-c2ccc(CN)cc2C#N)cn1 [Compound 24, (1R,5S,9r)-9-(5-(4-(aminomethyl)-2-cyanophenyl)pyridin-2-yl)-N-(3,5-difluorophenyl)-9-hydroxy-7-methyl-3,7-diazabicyclo[3.3.1]nonane-3-carboxamide] | 0.25 | 1 | 0.5 (≈ 0.964 µM) | 1 (≈ 1.93 µM) | >145 | 144 | 0.38 | 4 (≈ 7.71 µM) | 0.25 (≈ 0.482 µM) |
| CNCc1ccc(-c2ccc(C3(O)C4CN(C)CC3CN(C(=O)Nc3cc(F)cc(F)c3)C4)nc2)c(C#N)c1 [Compound 17, (1R,5S,9r)-9-(5-(2-cyano-4-((methylamino)methyl)phenyl)pyridin-2-yl)-N-(3,5-difluorophenyl)-9-hydroxy-7-methyl-3,7-diazabicyclo[3.3.1]nonane-3-carboxamide] | 0.5 | 0.22 | 0.22 (≈ 0.413 µM) | 0.45 (≈ 0.845 µM) | >145 | 138 | 0.45 | 3.56 (≈ 6.68 µM) | 0.22 (≈ 0.413 µM) |
| CN1CC2CN(C(=O)Nc3cc(F)cc(F)c3)CC(C1)C2(O)c1ccc(-c2ccc(CN)cc2C#N)cc1 [Compound 23, (1R,5S,9r)-9-(4′-(aminomethyl)-2′-cyano-[1,1′-biphenyl]-4-yl)-N-(3,5-difluorophenyl)-9-hydroxy-7-methyl-3,7-diazabicyclo[3.3.1]nonane-3-carboxamide] | 0.5 | 0.5 | 0.13 (≈ 0.251 µM) | 0.5 (≈ 0.966 µM) | 105 | 93 | 0.27 | 4 (≈ 7.73 µM) | 0.13 (≈ 0.251 µM) |
